Source: US10519504B2, “Methods for treatment of oncological disorders using epimetabolic shifters, multidimensional intracellular molecules, or environmental influencers” (Berg LLC, priority 2009, dated 2019)

Test system: Pyruvate Dehydrogenase-B (PDH-E1)
Test: Western blot, Pyruvate Dehydrogenase beta levels
Type: cell-based, human
Protocol: The pyruvate kinase blots were stripped by incubating for 30 minutes with methanol, followed by two 10 minute washes with TBS-T, then 30 minutes of incubation with Stripping buffer at 50 deg C., and followed by two washes with 100 ml or more of TBS-T for 30′ each. The 2 blots were scanned in laser scanner to check for complete stripping. After making sure stripping of the antibody and the ECF reagent has worked, the blots were activated with methanol for 5 seconds, washed with water for 5 minutes, and TBST for 15 minutes. The blots are blocked for 1 hour with 5% blocking reagent in TBS-T at room temperature and then washed 3 times with TBS-T (1X−15′; 2X5′ each) and probed with the antibody for Pyruvate Dehydrogenase in 5% BSA (ABNOVA catalog #H00005162-M03) at 1:500 dilutions) overnight at 4 deg C. with shaking. After the overnight incubation with primary antibody for Pyruvate Dehydrogenase, the membranes were washed 3 times with TBS-T (1X−15′; 2X5′ each) and probed with the secondary antibody (antimouse; 1:10,000 dilution) for 1 h on the orbital tilting shaker at room temperature. […]
The levels of LDH and PDH were determined by probing the blots successively with primary antibodies for LDH and PDH, essentially as described above. […]

COC1=C(OC)C(=O)C(C/C=C(\C)CC/C=C(\C)CC/C=C(\C)CC/C=C(\C)CC/C=C(\C)CC/C=C(\C)CC/C=C(\C)CC/C=C(\C)CC/C=C(\C)CCC=C(C)C)=C(C)C1=O [Q10, Coenzyme Q10]
expression of PDH-E1 (cancer cells): progressive increase in the expression of the PDH-E1 proteins
expression of PDH-E1 (normal cells): minimal changes in the normal cells
